Values quoted from earlier work as cited in patent US8409637B2, “Compositions and methods for treating and preventing migrainous headaches and associated symptoms” (Puramed Bioscience Inc., priority 2007, dated 2013).

Assays:
COX-2 = biological target: T1, COX-2 (Homo sapiens, UniProt P35354)
T1 sequence (P35354 18-604): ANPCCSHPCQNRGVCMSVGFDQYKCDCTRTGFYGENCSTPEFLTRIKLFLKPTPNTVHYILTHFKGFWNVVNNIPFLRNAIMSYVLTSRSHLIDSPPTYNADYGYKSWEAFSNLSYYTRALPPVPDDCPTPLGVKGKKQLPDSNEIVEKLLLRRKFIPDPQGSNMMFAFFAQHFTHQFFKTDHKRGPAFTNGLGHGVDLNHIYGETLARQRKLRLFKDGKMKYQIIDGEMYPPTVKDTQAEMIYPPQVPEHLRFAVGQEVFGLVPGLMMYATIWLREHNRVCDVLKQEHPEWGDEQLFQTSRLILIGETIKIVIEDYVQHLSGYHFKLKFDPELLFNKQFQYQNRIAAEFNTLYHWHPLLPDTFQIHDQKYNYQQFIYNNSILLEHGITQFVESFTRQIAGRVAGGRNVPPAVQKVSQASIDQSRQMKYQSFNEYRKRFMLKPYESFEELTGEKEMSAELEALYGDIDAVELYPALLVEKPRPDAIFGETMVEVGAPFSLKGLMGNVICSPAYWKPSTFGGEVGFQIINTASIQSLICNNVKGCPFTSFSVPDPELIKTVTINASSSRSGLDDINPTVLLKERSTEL

## C/C=C(/C=O)[C@@H](CC=O)CC(=O)OCCc1ccc(O)cc1 [oleocanthal]
COX-2
  Inhibition of COX-2 enzyme activity: inhibits
COX-1
  Inhibition of COX-1 enzyme activity: inhibits
